The target of series [1] is T1, Mcl-1 (Homo sapiens, UniProt Q07820). The conditions noted are these: cited from earlier work.
Target sequence in this assay (Q07820 whole entry, species assumed): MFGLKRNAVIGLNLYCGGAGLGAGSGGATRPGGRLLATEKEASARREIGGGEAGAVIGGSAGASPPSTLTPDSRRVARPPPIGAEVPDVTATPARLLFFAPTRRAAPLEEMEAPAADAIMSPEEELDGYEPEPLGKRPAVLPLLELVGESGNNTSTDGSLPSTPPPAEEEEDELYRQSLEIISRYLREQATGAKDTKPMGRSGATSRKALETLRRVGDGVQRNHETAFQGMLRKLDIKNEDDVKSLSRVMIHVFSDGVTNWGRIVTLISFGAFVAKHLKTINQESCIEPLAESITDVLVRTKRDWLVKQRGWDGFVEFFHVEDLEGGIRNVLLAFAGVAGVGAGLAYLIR
In series [2] the target is T1, Mcl-1. In words: HSQC NMR spectroscopy of binding to Mcl-1 protein. The conditions noted are these: compound in complex with Mcl-1. The source says: [drawing 85] with 5,6-difuran-2-yl-1,2,4-triazine core identified with high throughput screening (see, e.g., Du, Y., et al., Assay and drug development technologies 9, 382-393). […] The second furan ring has weak hydrophobic interaction with residues Phe 318 and Phe 319, which are located proximal to the conserved h4 pocket (FIG. 1). These two residues were identified that contribute to additional hydrophobic contacts with the staple of a reported stabilized α-helix (see, e.g., Stewart, M. L., et al., Nat Chem Biol 6, 595-601).
[drawing 86] was de-novo designed (FIG. 1). In the 368, one furan ring was replaced with carboxylate moiety in order to improve the conserved hydrogen bond, the other furan ring was replaced with phenylsulfonamido and the side chain was changed to phenethylthio substituent in order to allow further modification for improving hydrophobic interactions.
Target sequence in this assay (Q07820 whole entry): as the sequence (Q07820 whole entry, species assumed) above

In series [3] the target is T1, Mcl-1. The series is described as follows: FP based binding assay to Mcl-1 (Bid BH3 peptide probe).
Target sequence in this assay (Q07820 whole entry): as the sequence (Q07820 whole entry, species assumed) above
Series [4] deals with Eμ-myc lymphoma cells overexpressing Mcl-1. In words: Cell death in Eμ-myc lymphoma cells overexpressing Mcl-1. In kind it is cell-based, mouse. The conditions noted are these: Eμ-myc lymphoma overexpressing Mcl-1, 15 h, VIVID stain, flow cytometry. As for the experimental part: (§1) FIG. 5A-B: A) 483 induces Bax/Bak and Mcl-1 dependent cell death. Mouse Embryonic Fibroblasts (MEFs) were treated for 15 h with 483 and ABT263. Cell viability was assessed using propidium iodide staining detected with flow cytometry. […] Cells were treated for 15 h with increasing concentrations of (A) 483 and (B) ABT263. […] The percentage of dead cells was calculated using LIVE/DEAD fixable violet dead cell stain (VIVID) and detected with flow cytometry. (*) is p<0.001.
(§2) Wild-type, Bax/Bak double knockout and Mcl-1 knockout MEFs cells have been employed as models to establish the mechanism-based apoptosis and on-target activity (see, e.g., Lindsten, T., and Thompson, C. B. (2006) Cell death and differentiation 13, 1272-1276). […] The specificity of this class Mcl-1 inhibitors was further confirmed by using cell lines developed by retroviral transduction of lymphoma cells isolated from Eg-myc transgenic mice which survival depends on the expression of individual prosurvival protein.

The target in series [5] is T2, Bcl-w (Homo sapiens, UniProt Q92843).
T2 sequence (Q92843 1-193): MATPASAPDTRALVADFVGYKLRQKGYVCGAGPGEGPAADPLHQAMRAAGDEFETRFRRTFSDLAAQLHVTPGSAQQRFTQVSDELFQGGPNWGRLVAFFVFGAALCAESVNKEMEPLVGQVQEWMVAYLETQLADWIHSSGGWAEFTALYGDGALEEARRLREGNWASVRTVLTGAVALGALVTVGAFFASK
The series is described as follows: Binding selectivity, Bcl-w.

In series [6] the test system is Eμ-myc lymphoma cells overexpressing Bcl-2. The series is described as follows: Cell death in Eμ-myc lymphoma cells overexpressing Bcl-2. Type of series: cell-based, mouse. The conditions noted are these: Eμ-myc lymphoma overexpressing Bcl-2, 15 h. As for the experimental part:
as §1, §2

The target of series [7] is Bcl-2 (Homo sapiens, UniProt P10415). In words: Binding selectivity, Bcl-2.
Series [8] addresses T3, Bcl-xL (Homo sapiens, UniProt Q07817). In words: Binding selectivity, Bcl-xL.
In series [9] the test system is Mcl-1 knockout MEFs. In kind it is cell-based. The conditions noted are these: 15 h. As for the experimental part:
Cell viability was assessed using propidium iodide staining detected with flow cytometry. […] The percentage of dead cells was calculated using LIVE/DEAD fixable violet dead cell stain (VIVID) and detected with flow cytometry.

The subject of series [10] is Panc-1 cells. The series is described as follows: Cell growth inhibition of Panc-1 by MTT assay, ABT-263 with 483. In kind it is cell-based. The source says:
FIG. 7: 483 synergizes with ABT-263 to kill Panc-1 cells.
As expected, ABT-263 had little effect on this cell line (FIG. 7).
A general note: Formazan colour is commonly taken as a measure of viable cells.

For series [11], the target named is T4, Mcl-1/BAK protein-protein interactions (Homo sapiens, UniProt Q07820).
T4 construct: endogenous in cells; host or cells: Panc-1 cells
The series is described as follows: Co-immunoprecipitation of Mcl-1 protein in Panc-1 cells. The conditions noted are these: different concentrations, Mcl-1 immunoprecipitation and Western blot. In kind it is cell-based. The text has this: FIG. 8: 483LM disrupts the Mcl-1/BAK protein-protein interactions in Panc-1 cell line.
(A western blot detects proteins with antibodies after separation by electrophoresis.)

Series [12] deals with T5, endogenous Mcl-1 protein (Homo sapiens, UniProt Q07820).
T5 construct: endogenous in cells; host or cells: 2LMP human breast cancer cells (whole cell lysate)
In words: Pull-down assay using biotin-labeled Noxa and 2LMP whole cell lysate. In kind it is binding. The conditions noted are these: Western blot with anti-Mcl-1 antibody. As for the experimental part:
FIG. 3: Mcl-1 inhibitors recognize and bind endogenous Mcl-1 protein. Biotin-labeled Noxa (BL-Noxa, […]) was incubated with whole cell lysates of 2LMP cells with or without tested Mcl-1 inhibitors and Bim BH3 peptide as a positive control, followed by incubation with precleared streptavidin agarose beads. Eluted beads were subjected to Western blot analysis with anti-Mcl-1 antibody.

The test system of series [13] is Bax/Bak double knockout MEFs. The series is described as follows: Cell viability in Bax/Bak double knockout MEFs. Type of series: cell-based. The conditions noted are these: 15 h. As to the method:
as §1, §2

Series [14] deals with wild-type MEFs. The series is described as follows: Cell viability in wild-type MEFs. In kind it is cell-based, mouse. The conditions noted are these: 15 h, propidium iodide staining, flow cytometry. As to the method:
as §1, §2
(In general: A flow cytometer gives signals particle by particle.)

Series [15] addresses T3, Bcl-xL. In words: Cell-free functional assay with purified mitochondria, Smac release, Bcl-xL. In kind it is biochemical. The conditions noted are these: concentrations as high as 9 μM. The source says:
To provide direct evidence that 483 and 487 also selectively antagonize Mcl-1 function, a cell-free functional assay was established using purified mitochondria, recombinant Mcl-1 and Bcl-xL proteins, and the BIM BH3 peptide which binds to both proteins with high affinities.

The mark [16] stands for this setting: FP assay using Bid BH3 peptide as a probe.
The mark [17] stands for this setting: Binding affinity of Mcl-1 inhibitors using FP based assay, Table 1.

Entries after “also recorded” stand apart in the source; their conditions may differ.

T3 sequence (Q07817 whole entry, species assumed): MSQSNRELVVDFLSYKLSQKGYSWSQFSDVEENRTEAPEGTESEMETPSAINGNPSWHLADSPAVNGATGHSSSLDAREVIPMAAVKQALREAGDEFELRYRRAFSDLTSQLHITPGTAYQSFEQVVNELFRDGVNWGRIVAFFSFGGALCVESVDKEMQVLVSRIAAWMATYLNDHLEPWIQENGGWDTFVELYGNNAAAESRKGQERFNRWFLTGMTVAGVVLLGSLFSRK
T4 sequence (Q07820 whole entry): as the sequence (Q07820 whole entry, species assumed) above
T5 sequence (Q07820 whole entry): as the sequence (Q07820 whole entry, species assumed) above
Bcl-2, sequence (P10415 whole entry, species assumed): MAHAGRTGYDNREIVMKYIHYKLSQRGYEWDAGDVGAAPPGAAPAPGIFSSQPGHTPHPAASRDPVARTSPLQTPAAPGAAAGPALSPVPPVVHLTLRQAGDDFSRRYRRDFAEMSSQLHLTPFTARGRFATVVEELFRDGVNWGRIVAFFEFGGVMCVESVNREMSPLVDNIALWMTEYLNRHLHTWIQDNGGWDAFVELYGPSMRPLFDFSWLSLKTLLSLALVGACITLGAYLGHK

As for `CN(C)CC[C@H](CSc1ccccc1)Nc1ccc(S(=O)(=O)NC(=O)c2ccc(N3CCN(Cc4ccccc4-c4ccc(Cl)cc4)CC3)cc2)cc1[N+](=O)[O-]` [ABT-737], the “binding to Mcl-1” value in series [1] is “fails to bind”.

In general, Ki refers to the dissociation constant of the complex between target and ligand, obtained from inhibition or displacement. On to `O=C(CSc1nnc(-c2ccco2)c(-c2ccco2)n1)Nc1ccccc1` [Compound E238, reference compound], for which the “chemical shift perturbations in HSQC NMR spectrum” value in [2] is on record as “concentration-dependent perturbations”. The same compound displayed a Ki in series [3] (setting [16]) of 2.09 ± 0.18 µM.

For `CC(C)c1cc(NC(=O)c2ccc(Oc3ccccc3)cc2)c(C(=O)O)cc1-c1ccc(COc2cccc(C(F)(F)F)c2)cc1` [Compound 483, 6-isopropyl-4-(4-phenoxybenzamido)-4′-((3-(trifluoromethyl)phenoxy)methyl)-[1,1′-biphenyl]-3-carboxylic acid], the “cell death / sensitization” value in series [4] was “led to sensitization; also recorded: selectively induces cell death”. Also, the Ki is above 1 µM in series [5], above 1 µM in series [7], above 1 µM in [8] and 0.007 ± 0.002 µM in series [3] (binding affinity to Mcl-1). Also, in series [6], the effect on cells result is listed as “did not show effect”. Besides, the “cytotoxicity / growth-inhibitory activity” value in series [9] was “didn't show cytotoxicity”. In series [10] (Panc-1, 48 h), the “combination effect with ABT-263” value is recorded as “synergizes; also recorded: substantially shifted the dose-response curve”. The “improvement of IC50 of cell growth inhibition of ABT-263” value in [10] (Panc-1, ABT-263 in the presence of 483, 48 h) is “more than 660 fold”. The “disruption of Mcl-1/Bak protein-protein interactions” value in series [11] was “dose-dependent disruption”; in [11] (listed as 483LM), “disrupts”. Besides, the “blocking of the binding of BL-Noxa to Mcl-1” value in series [12] is “dose-dependent blocked”. Moreover, the cytotoxicity entry in series [13] is on record as “didn't show cytotoxicity”. In series [14], the cell death result is “causes cell death”. Moreover, the “release of Smac in the Bcl-xL functional assay” value in series [15] is given as “fail to release Smac”.

Consider `CC(C)c1cc(NC(=O)c2ccc(Oc3ccc(F)cc3)cc2)c(C(=O)O)cc1-c1ccc(COc2cccc(C(F)(F)F)c2)cc1` [Compound 487, 4-(4-(4-fluorophenoxy)benzamido)-6-isopropyl-4′-((3-(trifluoromethyl)phenoxy)methyl)-[1,1′-biphenyl]-3-carboxylic acid], for which the “release of Smac in the Bcl-xL functional assay” value in series [15] is listed as “fail to release Smac”. In [3] (setting [17]), this compound displayed a Ki of 0.008 ± 0.002 µM.

Take `CC1(C)CCC(c2ccc(Cl)cc2)=C(CN2CCN(c3ccc(C(=O)NS(=O)(=O)c4ccc(N[C@H](CCN5CCOCC5)CSc5ccccc5)c(S(=O)(=O)C(F)(F)F)c4)cc3)CC2)C1` [ABT-263, reference compound]: the “cytotoxicity / growth-inhibitory activity” value in [9] was “increased growth-inhibitory activity”. Also, the “effect on cell line, single agent” value in [10] (Panc-1, 48 h) is “little effect”.

For `O=C(O)c1cc(SCCc2ccccc2)ccc1NS(=O)(=O)c1ccccc1` [Compound 368, 5-(Phenethylthio)-2-(phenylsulfonamido)benzoic acid], in [2], the “chemical shift perturbations in HSQC NMR spectrum” value is reported as “large chemical shift perturbations”. The compound also returned a Ki in series [3] (setting [16]) of 0.49 ± 0.01 µM.

In [3] (setting [17]), `O=C(O)c1cc(NCCc2ccccc2)ccc1NS(=O)(=O)c1ccccc1` [Compound 404, 5-(phenethylamino)-2-(phenylsulfonamido)benzoic acid] showed a Ki of 5.74 ± 0.749 µM.

Source of the values: patent publication US9884841B2, “Small molecule inhibitors of Mcl-1 and uses thereof” (The Regents of the University of Michigan, priority 2015, dated 2018).
